What was measured:
[1] = test system: leukemia cells (K562, U937); assay: MTT assay of cytotoxicity and sonotoxicity in leukemia cells; format: cell-based
Description: (§1) Two kinds of leukemia cells (K562, U937) as main tumor cell models and cells (peripheral blood mononuclear cells, spleen lymphocytes) separated from healthy ICR mice as normal cell models were used. The multivolume spectrophotometer system and fluorescence spectrophotometer were used to determine the spectral characteristics of DVDMS. The uptake of DVDMS by tumor cells and normal cells was measured by flow cytometry. The MTT assay was used to examine the cytotoxicity and sonotoxicity of DVDMS.

[2] = test system: peripheral blood mononuclear cells, spleen lymphocytes; assay: MTT assay of cytotoxicity in normal cells; format: cell-based, ICR mice
Description: as §1

[3] = test system: tumor cells (K562, U937) and normal cells; assay: Cellular uptake by flow cytometry in tumor cells and normal cells; format: cell-based; conditions: tumor cells compared with normal healthy cells
Description: as §1

[4] = Spectral characteristics (absorption and fluorescence emission spectra); format: physicochemical
Description: as §1

[5] = test system: cancerous and normal cells; assay: Autofluorescence intensity and singlet oxygen production in cells; format: cell-based; conditions: compared with other photosensitizers / Photofrin
[6] = test system: ECA-109 cells; assay: Sonodynamic therapy in ECA-109 cells; format: cell-based
Text: Abundant intracellular reactive oxygen species (ROS) was found in the SDT groups, and the cytotoxicity induced by SDT was effectively remitted by ROS scavengers. […] Release of cytochrome C, an increased rate of apoptosis, and activated apoptosis protein were detected in the SDT group. In addition, relatively severe cell damage was observed on scanning electron microscopy after treatment with DVDMS and SDT.

[7] = test system: sarcoma 180 solid tumors; assay: Sonodynamic antitumor effect in mice bearing sarcoma 180 solid tumors; format: in vivo
Description: In order to determine the optimum timing of ultrasound exposure after administration of DVDMS, a three-dimensional optical imaging system (IVIS spectrum) was used to observe the biodistribution of DVDMS in S180 tumor. The antitumor effects were estimated by the tumor inhibition ratio (volume and weight) after sonodynamic therapy. […] A significant synergistic effect of ultrasound combined with DVDMS was obtained when the load power indicated 4 W and DVDMS dose was above 2 mg/kg. […] Conclusions: DVDMS is a potential sensitizer for sonodynamic cancer therapy. The antitumor effect of ultrasound could be enhanced in the presence of DVDMS, which might be involved in a sonochemical mechanism.

[8] = test system: 4T1 mammary cancer; assay: Photodynamic therapy in 4T1 mammary cancer-bearing mice; format: in vivo; conditions: for tumor volume inhibition ratio: 17th day
Description: At the beginning, we have pointed out that DVDMS is an active component isolated from Photofrin™ II. So it would be very interesting to compare the in vivo anti-cancer efficacy of DVDMS-PDT with PHOTOFRIN™-PDT (PF-PDT).
Representative mice were photographed at 6, 12, or 18 days after the corresponding treatments. […] However, tumor size decreased in a dose-dependent manner with increasing DVDMS and light exposure.
The tumor volume and tumor weight results were evaluated for each group.
On the 19th day, the tumors were photographed and the average tumor weight in each group was calculated.

[9] = test system: brain stem tumor; assay: Clinical cases of SDT for tumors of the brain stem; format: in vivo, patient
Description: Below are two typical clinical cases where SDT was selected for treatment of tumors of the brain stem. For Photofrin™ the dosage was 2 mg/kg of body weight. For DVDMS, the dosage was 0.2 mg/kg of body weight, a factor of ten less than Photofrin™. The ultrasound frequency was 0.5 to 1 MHz and the ultrasound power was 0.1 W/cm^2 to 1.5 W/cm^2. Ultrasound treatment is delayed after injection to permit absorbance of the sonodynamic compound into the tumor or other hyperproliferative tissue. In the case of Photofrin™ the delay is extensive, e.g. 20 to 30 hours. […] Due to differential absorption times into tumor, patient was intravenously injected with Photofrin™ 24 hours before ultrasound treatment and DVDMS was intravenously injected two hours prior to ultrasound treatment. Treatment occurred each time for 20-30 minutes and total time to treat three times was 72 hours.

[10] = test system: skin; assay: Dermatological phototoxicity and skin retention after treatment; set-up: species or system patient; conditions: in vivo

C=Cc1c(C)c2cc3nc(cc4[nH]c(cc5nc(cc1[nH]2)C(C)=C5C(C)OC(C)C1=C(C)c2cc5[nH]c(cc6nc(cc7[nH]c(cc1n2)c(C)c7CCC(=O)[O-])C(CCC(=O)[O-])=C6C)c(C)c5C=C)c(C)c4CCC(=O)[O-])C(CCC(=O)[O-])=C3C.[Na+].[Na+].[Na+].[Na+] (stereo not shown) [DVDMS]
sonotoxicity: cell-damaging effect of ultrasound in the presence of DVDMS ([1]; MTT, under appropriate conditions): significantly enhanced
cytotoxicity by the MTT method ([1]; without ultrasound): dose dependent
cytotoxicity to normal cells [2]: little cytotoxicity
cellular uptake and accumulation [3]: quick cellular uptake and selective accumulation in tumor cells
absorption spectra, maximum peak [4]: 359 nm
fluorescence emission [4]: 642 nm
autofluorescence intensity [5]: significantly higher
singlet oxygen production efficiency [5]: significantly higher
subcellular location [6]: mainly to the mitochondria
SDT cytotoxicity ([6]; compared with hematoporphyrin): more cytotoxic
tumor weight inhibition ratio ([7]; DVDMS alone, no ultrasound): 23.15%
biodistribution (IVIS spectrum optical imaging) ([7]; S180 tumor-bearing mice): preferential localization in tumors, but a low accumulation in most normal tissues
metastasis ([7]; SDT-treated mice compared with the control group): no metastasis occurred
tumor volume inhibition ratio ([7]; day 14 after DVDMS-SDT): 56.27%
tumor weight inhibition ratio ([7]; synergistic treatment (ultrasound combined with DVDMS)): 55.37%
tumor size versus PF group ([8]; 2 mg/kg DVDMS vs 10 mg/kg PF, same light exposure 100 J/cm^2): less than in the 10 mg/kg PF group
tumor volume inhibition ratio ([8]; 1 mg/kg DVDMS+50 J/cm^2, vs control): 38.51%
tumor volume inhibition ratio ([8]; 2 mg/kg DVDMS alone, vs control): 7.42%
tumor volume inhibition ratio ([8]; 2 mg/kg DVDMS+50 J/cm^2, vs control): 59.23%
tumor volume inhibition ratio ([8]; 2 mg/kg DVDMS+100 J/cm^2, vs control): 66.97%
tumor volume inhibition ratio ([8]; 2 mg/kg DVDMS+150 J/cm^2, vs control): 78.12%
tumor volume inhibition ratio ([8]; group (2) mg/kg DVDMS+50 J/cm^2 (dose not given), vs control): 18.61%
survival of tumor-bearing mice ([8]; DVDMS-PDT compared to control and DVDMS-only groups (p<0.01)): significantly prolonged
survival of tumor-bearing mice versus PF-PDT ([8]; DVDMS-PDT vs PF-PDT (p<0.05)): more effective than PF-PDT
tumor volume and tumor weight ([8]; nineteen days after treatment, DVDMS plus light exposure vs control or DVDMS alone): significantly lower
time to what appears to be complete remission ([9]; SDT, 0.2 mg/kg): ≤ 30 days
absorbance into the tumor after injection ([9]; compared with Photofrin): absorbance is much quicker
efficacy in sonic treatment relative to Photofrin II ([9]; injected into a host): about ten times higher
cranial MRI on review after SDT treatment ([9]; patient, 0.2 mg/kg): tumor was absorbed, brain stem edema was significantly reduced
head MRI 30 days after treatment ([9]; patient, 0.2 mg/kg): ventral brain stem tumor has disappeared
dermatological phototoxicity [10]: lacking dermatological phototoxicity

Source: US9999760B2, “DVDMS sensitizer for cancer sonodynamic therapy” (priority 2015, dated 2018)
